Measurements as given in US20240343694A1, “PYRIMIDINE DERIVATIVE, METHOD FOR PREPARING SAME, AND PHARMACEUTICAL COMPOSITION FOR PREVENTING OR TREATING CANCER COMPRISING SAME AS ACTIVE INGREDIENT” (KOREA RESERARCH INSTITUTE OF CHEMICAL TECHNOLOGY, priority 2021, published 2024).

Key:
Format in all cases: biochemical
Details in all cases: recombinant enzyme, 37° C. for 2 hours
EGFR del19 = EGFR del19 (Homo sapiens (Human), UniProt P00533, DEL746-750); assay: HTRF inhibitory activity against EGFR mutant enzyme (EGFR del19)
Sequence of EGFR del19 (P00533 other isoform, or with tags, fused parts or gaps del 1-668/del 746-750 limits assumed): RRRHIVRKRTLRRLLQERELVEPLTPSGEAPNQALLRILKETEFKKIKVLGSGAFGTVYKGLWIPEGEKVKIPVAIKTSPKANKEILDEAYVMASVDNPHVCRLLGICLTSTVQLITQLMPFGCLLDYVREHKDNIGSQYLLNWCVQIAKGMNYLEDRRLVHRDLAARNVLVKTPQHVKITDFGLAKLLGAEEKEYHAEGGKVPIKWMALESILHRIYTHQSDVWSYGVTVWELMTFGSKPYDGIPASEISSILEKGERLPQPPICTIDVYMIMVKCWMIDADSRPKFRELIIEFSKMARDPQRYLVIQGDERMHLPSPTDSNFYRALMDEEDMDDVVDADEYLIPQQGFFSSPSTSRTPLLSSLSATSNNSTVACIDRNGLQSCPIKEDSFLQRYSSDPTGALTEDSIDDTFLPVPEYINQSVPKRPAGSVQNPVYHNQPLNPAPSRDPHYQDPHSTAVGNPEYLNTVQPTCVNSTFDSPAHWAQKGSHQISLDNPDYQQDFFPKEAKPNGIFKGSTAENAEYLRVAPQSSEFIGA
Procedure: (§1) The activity of the compounds of the present invention against EGFR mutant enzymes was measured using the HTRF system purchased from Cisbio as follows. For an EGFR mutant enzyme, the EGFR del19 enzyme was a recombinant protein purchased from Carna Biosciences, and the EGFR A763_Y764insFHEA enzyme was a recombinant protein purchased from SignalChem, respectively.
(§2) The composition of the assay buffer used for activity measurement was 50 mM tris-HCl pH 7.5, 100 mM NaCl, 7.5 mM MgCl2, 3 mM KCl, 0.01% tween 20, 0.1% BSA, and 1 mM DTT. An enzymatic reaction was performed using a peptide substrate labeled with ATP at a concentration of […] and biotin at a concentration of […]. The analysis of the inhibitory effect of the compounds on EGFR activity was performed according to the following method. • Component 1:4 μL of EGFR mutant enzyme • Component 2:2 μL of compound solution • Component 3:4 μL of ATP and a biotin labeled peptide
(§3) The enzyme reaction begins by first mixing component 1 and component 2 and then adding component 3 thereto. After the reaction at 37° C. for 2 hours, […] of a measurement solution consisting of streptavidin-XL665 and a europium-labeled anti-phosphotyrosine antibody purchased from Cisbio was added to the enzyme reaction solution and reacted at room temperature for 1 hour. Finally, the ratio of fluorescence values at 615 nm and 665 nm was measured using Perkin-Elmer's Envision instrument to calculate enzyme activity and confirm the inhibitory ability of the compounds. The measured values at 7 compound concentrations were analyzed using the Prism program (version 5.01, Graphpad Software, Inc.), and the IC50 (μM) values, which are measures of the compounds' inhibitory activity, were calculated.

EGFR A763_Y764insFHEA = EGFR A763_Y764insFHEA (Homo sapiens (Human), UniProt P00533, INS763FHEA); assay: HTRF inhibitory activity against EGFR mutant enzyme (EGFR A763_Y764insFHEA)
Sequence of EGFR A763_Y764insFHEA (P00533 other isoform, or with tags, fused parts or gaps del 1-694/ins FHEA behind 763 limits assumed): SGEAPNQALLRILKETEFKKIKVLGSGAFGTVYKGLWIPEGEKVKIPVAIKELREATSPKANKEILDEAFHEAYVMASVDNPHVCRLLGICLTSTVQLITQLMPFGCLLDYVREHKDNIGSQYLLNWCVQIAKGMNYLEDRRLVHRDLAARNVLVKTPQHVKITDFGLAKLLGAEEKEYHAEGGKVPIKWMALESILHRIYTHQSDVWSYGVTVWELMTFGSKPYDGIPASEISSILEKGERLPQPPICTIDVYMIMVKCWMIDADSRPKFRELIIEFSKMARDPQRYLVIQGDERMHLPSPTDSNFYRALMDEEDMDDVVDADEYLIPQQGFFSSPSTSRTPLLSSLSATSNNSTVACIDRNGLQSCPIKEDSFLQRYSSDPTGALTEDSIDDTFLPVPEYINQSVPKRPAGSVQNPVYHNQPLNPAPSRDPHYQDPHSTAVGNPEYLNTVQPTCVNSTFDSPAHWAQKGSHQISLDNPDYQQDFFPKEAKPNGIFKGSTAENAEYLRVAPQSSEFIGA
Procedure: as §1, §2, §3

HER2 A775_G776insYVMA = HER2 A775_G776insYVMA (Homo sapiens (Human), UniProt P04626, INS775YVMA); assay: HTRF inhibitory activity against HER2 mutant enzyme
Sequence of HER2 A775_G776insYVMA (P04626 other isoform, or with tags, fused parts or gaps del 1-675/ins YVMA behind 775 limits assumed): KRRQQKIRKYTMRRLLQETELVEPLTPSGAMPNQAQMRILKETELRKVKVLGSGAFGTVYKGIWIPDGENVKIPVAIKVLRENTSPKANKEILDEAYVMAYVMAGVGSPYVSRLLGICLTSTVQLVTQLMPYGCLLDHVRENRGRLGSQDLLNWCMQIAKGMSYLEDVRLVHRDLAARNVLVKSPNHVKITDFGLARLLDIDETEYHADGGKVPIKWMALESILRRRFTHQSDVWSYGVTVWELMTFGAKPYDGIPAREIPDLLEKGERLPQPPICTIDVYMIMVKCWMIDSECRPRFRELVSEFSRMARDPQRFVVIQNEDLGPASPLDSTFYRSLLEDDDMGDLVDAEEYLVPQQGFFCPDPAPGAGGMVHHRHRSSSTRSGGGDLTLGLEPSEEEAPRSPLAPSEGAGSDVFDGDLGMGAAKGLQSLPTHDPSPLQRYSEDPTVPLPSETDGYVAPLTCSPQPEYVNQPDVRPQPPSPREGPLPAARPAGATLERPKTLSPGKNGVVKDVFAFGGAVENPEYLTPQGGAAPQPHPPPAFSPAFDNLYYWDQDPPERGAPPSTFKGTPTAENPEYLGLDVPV
Procedure: The activity of the compounds of the present invention against HER mutant enzymes was measured using the HTRF system purchased by Cisbio as follows. As a HER2 mutant enzyme, the HER2 A775_G776insYVMA mutant enzyme was used by purchasing a recombinant protein provided by Carna Biosciences.
as §2, with “mM DTT. In addition thereto, the enzymatic reaction” for “mM DTT. An enzymatic reaction”, “of the activity inhibitory effect” for “of the inhibitory effect”, “compounds on HER2 A775_G776insYVMA mutation was performed” for “compounds on EGFR activity was performed”, “μL of HER2 A775_G776insYVMA mutant enzyme” for “μL of EGFR mutant enzyme”
as §3, with “Finally, the ratio of fluorescence values at 615 nm and 665 nm was measured using Perkin-Elmer's Envision instrument to calculate enzyme activity and confirm the inhibitory ability of the compounds.” left out, “ability,” for “activity,”

| SMILES | IC50 (EGFR del19) [µM] | IC50 (EGFR A763_Y764insFHEA) [µM] | IC50 (HER2 A775_G776insYVMA) [µM] |
| --- | --- | --- | --- |
| C=CC(=O)Nc1cc(Nc2nccc(Nc3ccccc3NS(=O)(=O)CCC)n2)c(OC)cc1N(C)CCN(C)C [Example 8, N-(2-((2-(dimethylamino)ethyl)(methyl)amino)-4-methoxy-5-((4-((2-(propylsulfonamido)phenyl)amino)pyrimidin-2-yl)amino)phenyl)acrylamide] | 0.01 | 0.02 | 0.92 |
| C=CC(=O)Nc1cc(Nc2nccc(Nc3ccccc3NS(=O)(=O)c3ccc(C)cc3)n2)c(OC)cc1N(C)CCN(C)C [Example 9, N-(2-((2-(dimethylamino)ethyl)(methyl)amino)-4-methoxy-5-((4-((2-((4-methylphenyl)sulfonamido)phenyl)amino)pyrimidin-2-yl)amino)phenyl)acrylamide] | 0.02 | 0.09 | 2.4 |
| C=CC(=O)Nc1cc(Nc2nccc(Nc3ccccc3NS(=O)(=O)CC)n2)c(OC)cc1N(C)CCN(C)C [Example 10, N-(2-((2-(dimethylamino)ethyl)(methyl)amino)-5-((4-((2-(ethylsulfonamido)phenyl)amino)pyrimidin-2-yl)amino)-4-methoxyphenyl)acrylamide] | < 0.001 | 0.01 | 0.44 |
| C=CC(=O)Nc1cc(Nc2ncc(F)c(Nc3ccccc3NS(=O)(=O)CC)n2)c(OC)cc1N(C)CCN(C)C [Example 12, N-(2-((2-(dimethylamino)ethyl)(methyl)amino)-5-((4-((2-(ethylsulfonamido)phenyl)amino)-5-fluoropyrimidin-2-yl)amino)-4-methoxyphenyl)acrylamide] | < 0.001 | 0.004 | 0.069 |
| C=CC(=O)Nc1cc(Nc2ncc(F)c(Nc3ccccc3NS(=O)(=O)CCC)n2)c(OC)cc1N(C)CCN(C)C [Example 13, N-(2-((2-(dimethylamino)ethyl)(methyl)amino)-5-((5-fluoro-4-((2-(propylsulfonamido)phenyl)amino)pyrimidin-2-yl)amino)-4-methoxyphenyl)acrylamide] | 0.002 | 0.01 | 0.14 |
| C=CC(=O)Nc1cc(Nc2ncc(F)c(Nc3ccccc3NS(=O)(=O)c3ccccc3)n2)c(OC)cc1N(C)CCN(C)C [Example 14, N-(2-((2-(dimethylamino)ethyl)(methyl)amino)-5-((5-fluoro-4-((2-(phenylsulfonamido)phenyl)amino)pyrimidin-2-yl)amino)-4-methoxyphenyl)acrylamide] | 0.001 | 0.002 | 0.41 |
| C=CC(=O)Nc1cc(Nc2ncc(F)c(Nc3ccccc3NS(=O)(=O)c3ccc(C)cc3)n2)c(OC)cc1N(C)CCN(C)C [Example 15, N-(2-((2-(dimethylamino)ethyl)(methyl)amino)-5-((5-fluoro-4-((2-((4-methylphenyl)sulfonamido)phenyl)amino)pyrimidin-2-yl)amino)-4-methoxyphenyl)acrylamide] | 0.01 | 0.01 | 1.2 |
| C=CC(=O)Nc1cc(Nc2ncc(C)c(Nc3ccccc3NS(=O)(=O)c3ccc(C)cc3)n2)c(OC)cc1N(C)CCN(C)C [Example 17, N-(2-((2-(dimethylamino)ethyl)(methyl)amino)-4-methoxy-5-((5-methyl-4-((2-((4-methylphenyl)sulfonamido)phenyl)amino)pyrimidin-2-yl)amino)phenyl)acrylamide] | 0.01 | 0.02 | 1.1 |
| C=CC(=O)Nc1cc(Nc2ncc(C)c(Nc3ccccc3NS(=O)(=O)CCC)n2)c(OC)cc1N(C)CCN(C)C [Example 18, N-(2-((2-(dimethylamino)ethyl)(methyl)amino)-4-methoxy-5-((5-methyl-4-((2-(propylsulfonamido)phenyl)amino)pyrimidin-2-yl)amino)phenyl)acrylamide] | < 0.001 | 0.007 | 0.11 |
| C=CC(=O)Nc1cc(Nc2ncc(C)c(Nc3ccccc3NS(=O)(=O)CC)n2)c(OC)cc1N(C)CCN(C)C [Example 19, N-(2-((2-(dimethylamino)ethyl)(methyl)amino)-5-((4-((2-(ethylsulfonamido)phenyl)amino)-5-methylpyrimidin-2-yl)amino)-4-methoxyphenyl)acrylamide] | < 0.001 | 0.003 | 0.034 |
| C=CC(=O)Nc1cc(Nc2ncc(C)c(Nc3ccccc3NS(=O)(=O)c3ccccc3)n2)c(OC)cc1N(C)CCN(C)C [Example 20, N-(2-((2-(dimethylamino)ethyl)(methyl)amino)-4-methoxy-5-((5-methyl-4-((2-(phenylsulfonamido)phenyl)amino)pyrimidin-2-yl)amino)phenyl)acrylamide] | 0.002 | 0.006 | 0.37 |
| C=CC(=O)Nc1cc(Nc2ncc(Cl)c(Nc3ccccc3NS(C)(=O)=O)n2)c(OC)cc1N(C)CCN1CCCCC1 [Example 23, N-(5-((5-chloro-4-((2-(methylsulfonamido)phenyl)amino)pyrimidin-2-yl)amino)-4-methoxy-2-(methyl(2-(piperidin-1-yl)ethyl)amino)phenyl)acrylamide] | < 0.001 | 0.003 | 0.03 |
| COc1cc(N2CCOCC2)c(NC(=O)/C=C/CN(C)C)cc1Nc1ncc(Cl)c(Nc2ccccc2NS(C)(=O)=O)n1 [Example 26, (E)-N-(5-((5-chloro-4-((2-(methylsulfonamido)phenyl)amino)pyrimidin-2-yl)amino)-4-methoxy-2-morpholinophenyl)-4-(dimethylamino)buten-2-amide] | 0.004 | 0.2 | 0.08 |
| COc1cc(N2CCN(C)CC2)c(NC(=O)/C=C/CN(C)C)cc1Nc1ncc(Cl)c(Nc2ccccc2NS(C)(=O)=O)n1 [Example 27, (E)-N-(5-((5-chloro-4-((2-(methylsulfonamido)phenyl)amino)pyrimidin-2-yl)amino)-4-methoxy-2-(4-methylpiperazin-1-yl)phenyl)-4-(dimethylamino)buten-2-amide] | 0.003 | 0.009 | 0.03 |
| COc1cc(N(C)CCN(C)C)c(NC(=O)/C=C/CN(C)C)cc1Nc1ncc(Cl)c(Nc2ccccc2NS(C)(=O)=O)n1 [Example 28, (E)-N-(5-((5-chloro-4-((2-(methylsulfonamido)phenyl)amino)pyrimidin-2-yl)amino)-2-((2-(dimethylamino)ethyl)(methyl)amino)-4-methoxyphenyl)-4-(dimethylamino)buten-2-amide] | < 0.001 | 0.008 | 0.07 |
| C=CC(=O)Nc1cc(Nc2ncc(Cl)c(Nc3cccc(Cl)c3NS(C)(=O)=O)n2)c(OC)cc1N(C)CCN(C)C [Example 34, N-(5-((5-chloro-4-((3-chloro-2-(methylsulfonamido)phenyl)amino)pyrimidin-2-yl)amino)-2-((2-(dimethylamino)ethyl)(methyl)amino)-4-methoxyphenyl)acrylamide] | < 0.001 | 0.001 | 0.02 |
| C=CC(=O)Nc1cc(Nc2ncc(Cl)c(Nc3cccc(CC)c3NS(=O)(=O)CC)n2)c(OC)cc1N(C)CCN(C)C [Example 42, N-(5-((5-chloro-4-((3-ethyl-2-(ethylsulfonamido)phenyl)amino)pyrimidin-2-yl)amino)-2-((2-(dimethylamino)ethyl)(methyl)amino)-4-methoxyphenyl)acrylamide] | < 0.001 | < 0.001 | 0.006 |
| C=CC(=O)Nc1cc(Nc2ncc(Cl)c(Nc3ccc(C)c(C)c3NS(C)(=O)=O)n2)c(OC)cc1N(C)CCN(C)C [Example 44, N-(5-((5-chloro-4-((3,4-dimethyl-2-(methylsulfonamido)phenyl)amino)pyrimidin-2-yl)amino)-2-((2-(dimethylamino)ethyl)(methyl)amino)-4-methoxyphenyl)acrylamide] | < 0.001 | < 0.001 | 0.006 |
